pEC50, pIC50: −log10 of the molar value. Values joined by “and” are separate entries in the source; they are usually repeats but may differ in a detail not shown here. Equal values may be shown once.

Data set [1] concerns rat uterine decidualization. The data set can be described thus: Rat decidualization assay. The format is in vivo. To be noted: s.c.; for Estimated average EC50: average of dose-response curves, rat decidualization; for Estimated EC50 for uterine wet weight: ovariectomized female Sprague-Dawley rats, once daily for seven days, individual studies. On the procedure: 1. Rat decidualization assay
b. Animals (RACUC protocol #5002)
The animals are treated once daily for seven days.
Uteri are removed and trimmed of fat.
Body weight: Mean total animal body weight (default-kg)
Decidual response: [(D-C)/C]×100%

The subject of a further data set is T47D cells. Put plainly: T47D cell proliferation assay (BrdU incorporation). The format is cell-based. As for the experimental part:
3. T47D Cell Proliferation Assay
The objective of this assay is the determination of progestational and antiprogestational potency by using a cell proliferation assay in T47D cells. A compound's effect on DNA synthesis in T47D cells is measured.
DMEM:F12 (1:1) (GIBCO, BRL) supplemented with 10% (v/v) fetal bovine serum (not heat-inactivated), 10 U/ml penicillin, […] streptornycin, and 2 mM GlutaMax (GIBCO, BRL).
Minimum Essential Medium (MEM) (#51200-038GIBCO, BRL) phenol red-free supplemented with 0.5% charcoal stripped fetal bovine serum, 100 U/ml penicillin, […] streptornycin, and 2 mM GlutaMax (GIBCO, BRL).
Stock T47 D cells are maintained in growth medium. For BrdU incorporation assay, cells are plated in 96-well plates (Falcon, Becton Dickinson Labware) at 10,000 cells/well in growth medium. […]
At the end of BrdU labeling, the medium is removed and BrdU incorporation is measured using a cell proliferation ELISA kit (#RPN 250, Amersham Life Science) according to manufacturer's instructions. […] Then 25 μl of 1 M sulfuric acid is added to each well to stop color reaction and optical density is read in a plate reader at 450 nm within 5 min.
Square root-transformed data are used for analysis of variance and nonlinear dose response curve fitting for both agonist and antagonist modes. […] EC50 or IC50 values are calculated from the retransformed values. […]
Background: Uptake of a labelled nucleoside into DNA is a usual measure of proliferation.

With `C#C[C@]1(O)CC[C@H]2[C@@H]3CCC4=CC(=O)CC[C@@H]4[C@H]3C(=C)C[C@@]21CC` [3-Ketodesogestrel, 3-ketodesogestrel], in data set [1], the “Estimated average EC50” value is on record as 0.10 mg/kg, s.c; the “Estimated EC50 for uterine wet weight” value is 0.10 mg/kg, s.c. and 0.06 mg/kg, s.c. and 0.11 mg/kg, s.c.
On to `CC1(C)CC(=O)Nc2ccc(-c3cccc(Cl)c3)cc21` [6-(3-Chlorophenyl)-4,4-dimethyl-3,4-dihydro-1H-quinolin-2-one], for which the melting point lay within 211 to 215 °C.
The same measure, in the same setting: as for `CC1OC(C)(C)Nc2ccc(-c3cccc([N+](=O)[O-])c3)cc21` (stereo not shown) [Compound 3, 6-(3-Nitro-phenyl)-2,2,4,-trimethyl-1,4dihydro-2H-benzo[d][1,3]oxazine], the figure is 188 to 189 °C.
For `CC1Nc2ccc(-c3ccc(C#N)s3)cc2C(C)(C)O1` (stereo not shown) [Example 13, 5-(2,4,4-Trimethyl-1,4-dihydro-2H-3,1-benzoxazin-6-yl)thiophene-2-carbonitrile], the melting point lay in the range of 172 to 173 °C.
`CC1Nc2ccc(-c3cc(F)cc(C#N)c3)cc2C(C)(C)O1` (stereo not shown) [Example 14, 3-Fluoro-5-(2,4,4-trimethyl-1,4-dihydro-2H-3,1-benzoxazin-6-yl)benzonitrile] yielded a melting point of 163 to 164 °C.
The compound `CC1Nc2ccc(-c3csc(C#N)c3)cc2C(C)(C)O1` (stereo not shown) [Example 15, 4-(2,4,4-Trimethyl-1,4-dihydro-2H-3,1-benzoxazin-6-yl)thiophene-2-carbonitrile] displayed a melting point of 175 to 176 °C.
Turning to `Cc1cc(C#N)sc1-c1ccc2c(c1)C(C)(C)OC(C)N2` (stereo not shown) [Example 16, 4-Methyl-5(2,4,4-trimethyl-1,4-dihydro-2H-3,1-benzoxazin-6-yl)thiophene-2-carbonitrile], the melting point is 145 to 146 °C.
With `C[C@@H]1Nc2ccc(-c3cc(F)cc(C#N)c3)cc2[C@](C)(c2ccccc2)O1` [Example 17, 3-[(2R,4S)-2,4-Dimethyl-4-phenyl-1,4-dihydro-2H-3,1-benzoxazin-6-yl]-5-fluorobenzonitrile], the melting point was 128 to 129 °C.
The same measure, in the same setting: as for `CC1OC(C)(C)c2cc(-c3ccc(C#N)n3C(=O)OC(C)(C)C)ccc2N1C(=O)OCC1c2ccccc2-c2ccccc21` (stereo not shown) [Example 19, 9H-Fluoren-9-ylmethyl-6-[1-(tert-butoxycarbonyl)-5-cyano-1H-pyrrol-2-yl]-2,4,4-trimethyl-2H-3,1-benzoxazine-1(4H)-carboxylate], the figure is 135 to 136 °C; as for `CC1Nc2ccc(-c3ccc(C#N)[nH]3)cc2C(C)(C)O1` (stereo not shown) [Example 20, 5-(2,4,4-Trimethyl-1,4-dihydro-2H-3,1-benzoxazin-6-yl)1H-pyrrole-2-carbonitrile], 201 to 202 °C.
`CC1Nc2ccc(-c3csc(C#N)c3)cc2C2(CCCCC2)O1` (stereo not shown) [Example 26, 4-(2-Methylspiro[2H-3,1-benzoxazine-4,1′-cyclohexane]-6-yl)2-thiophenecarbonitrile] registered a melting point of 111 to 112 °C.
The compound `CC1Nc2ccc(-c3cccc(F)c3)cc2C(C)(C)O1` (stereo not shown) [Example 27, 6-(3-Fluorophenyl)-2,4,4-trimethyl-1,4-dihydro-2H-3,1-benzoxazine] registered a melting point of 139 to 140 °C.
With `CC1Nc2ccc(-c3cccc(Cl)c3)cc2C(C)(C)O1` (stereo not shown) [Example 28, 6-(3-Chlorophenyl)-2,4,4-trimethyl-1,4-dihydro-2H-3,1-benzoxazine], the melting point was 144 to 146 °C.
Still for that read-out and setting: as for `CC1Nc2ccc(-c3ccc(F)c(Cl)c3)cc2C(C)(C)O1` (stereo not shown) [Example 29, 6(3-Chloro-4-fluorophenyl)-2,4,4-trimethyl-1,4dihydro-2H-3,1-benzoxazine], the figure is 173 to 175 °C.
`CC1Nc2ccc(-c3ccc(F)c(C#N)c3)cc2C(C)(C)O1` (stereo not shown) [Example 30, 2-Fluoro-5-(2,4,4-trimethyl-1,4-dihydro-2H-3,1-benzoxazin-6-yl)benzonitrile] returned a melting point of 184 to 186 °C.
Still for that read-out and setting: to `CC1Nc2ccc(-c3coc(C#N)c3)cc2C(C)(C)O1` (stereo not shown) [Example 31, 4-(2,4,4-Trimethyl-1,4-dihydro-2H-3,1-benzoxazin-6-yl)-2-furonitrile] belongs 116 to 118 °C; to `CC1(C)OC(C(F)(F)F)Nc2ccc(-c3cc(F)cc(C#N)c3)cc21` (stereo not shown) [Example 32, 3-[4,4-Dimethyl-2-(trifluoromethyl)-1,4-dihydro-2H-3,1-benzoxazin-6-yl]-5-fluorobenzonitrile], 102 to 103 °C.
In turn, `Cc1cc(C#N)sc1-c1ccc2c(c1)C(C)(C)OC(C(F)(F)F)N2` (stereo not shown) [Example 38, 5-[4,4-Dimethyl-2-(trifluoromethyl)-1,4-dihydro-2H-3,1-benzoxazin-6yl]-4-methylthiophene-2-carbonitrile] had a melting point of 97 to 98 °C.
On the same count and under the same terms, as for `CC1(C)OC(C(F)(F)F)Nc2ccc(-c3cccc(Cl)c3)cc21` (stereo not shown) [Example 39, 6-(3-Chlorophenyl)-4,4-dimethyl-2-(trifluoromethyl)-1,4-dihydro-2H-3,1-benzoxazine], the figure is 108 to 109 °C.
`CC1(C)CC(=O)Nc2ccc(-c3cccc(F)c3)cc21` [Example 40, 6(3-Fluorophenyl)-4,4-dimethyl-3,4-dihydroquinolin-2(1H)-one]: the melting point fell in the range of 190 to 192 °C.
Regarding `CC1(C)CC(=O)Nc2ccc(-c3cc(F)cc(C#N)c3)cc21` [Example 41, 3-(4,4-Dimethyl-2-oxo-1,2,3,4-tetrahydroquinolin-6-yl)-5-fluorobenzonitrile], the melting point is 249 to 250 °C.
As to `CC1(C)CC(=O)Nc2ccc(-c3cccc(C#N)c3)cc21` [Example 42, 3-(4,4-Dimethyl-2-oxo-1,2,3,4-tetrahydroquinolin-6-yl)benzonitrile], the melting point was 190 to 192 °C.
`CC1(C)CC(=S)Nc2ccc(-c3cccc(F)c3)cc21` [Example 44, 6-(3-Fluorophenyl)-4,4-dimethyl-3,4-dihydroquinoline-2(1H)-thione] came in with a melting point of 209 to 211 °C.
Turning to `CC1(C)CC(=S)Nc2ccc(-c3cc(F)cc(C#N)c3)cc21` [Example 46, 3-(4,4-Dimethyl-2-thioxo-1,2,3,4-tetrahydroquinolin-6-yl)5-fluorobenzonitrile], the melting point was 240 to 242 °C (dec.).
Turning to `C#C[C@]1(O)CC[C@H]2[C@@H]3CCC4=CC(=O)CC[C@@H]4[C@H]3CC[C@@]21CC` [Levonorgestrel, levonorgestrel], in data set [1], the “Estimated average EC50” value is reported as 0.10 mg/kg, s.c; the “Estimated EC50 for uterine wet weight” value was 0.08 mg/kg, s.c. and 0.12 mg/kg, s.c. and 0.09 mg/kg, s.c. (2×).
Take `CC(=O)O[C@]1(C(C)=O)CC[C@H]2[C@@H]3C[C@H](C)C4=CC(=O)CC[C@]4(C)[C@H]3CC[C@@]21C` [MPA, medroxyprogesterone acetate]: the “Estimated EC50 for uterine wet weight” value in data set [1] was 0.42 mg/kg, s.c. and 0.39 mg/kg, s.c. (2×).
As for `CC(=O)[C@H]1CC[C@H]2[C@@H]3CCC4=CC(=O)CC[C@]4(C)[C@H]3CC[C@]12C` [Progesterone, progesterone], the “Estimated EC50 for uterine wet weight” value in data set [1] is listed as 5.50 mg/kg, s.c.
As to `CC#C[C@]1(O)CC[C@H]2[C@@H]3CCC4=CC(=O)CCC4=C3[C@@H](c3ccc(N(C)C)cc3)C[C@@]21C` [RU486], in the data set with T47D cells (half-maximal decrease in trimegestone induced BrdU incorporation, read-out: Estimated IC50), the pIC50 was 10.80 and 10.74. The “Estimated IC50” value in data set [1] (decrease in EC50 progesterone (5.6 mg/kg) induced decidual response, rat) is 0.21 mg/kg, s.c. and 0.14 mg/kg, s.c.
For the compound `C[C@H](O)C(=O)[C@@]1(C)CC[C@H]2[C@@H]3CCC4=CC(=O)CCC4=C3CC[C@@]21C` [Trimegestone, trimegestone], the pEC50 in the data set with T47D cells (half-maximal increase in BrdU incorporation, individual studies, read-out: Estimated EC50) was 10.77 and 10.85 and 10.72.
`CC1(C2CC2)NC(=O)Nc2ccc(-c3cccc(Cl)c3)cc21` (stereo not shown) [drawing 34, R = H, 6-(3-Chlorophenyl)-4-cyclopropyl-4-methyl-3,4-dihydro-1H-quinazolin-2-one] yielded a melting point of 125 to 127 °C.
Take `CN1C(=O)Nc2ccc(-c3cccc(Cl)c3)cc2C1(C)C1CC1` (stereo not shown) [drawing 34, R = Me, 6-(3-Chlorophenyl)-4-cyclopropyl-3,4-dimethyl3,4dihydro-1H-guinazolin-2-one]: the melting point fell in the range of 193 to 194 °C.

The melting point is the temperature of the solid-liquid transition. For orientation: pIC50 means the IC50 on a negative log10 scale, so that one unit is a factor of ten. In general, pEC50 refers to −log10 of the EC50, conventionally taken in molar units.

These data come from US6498154B1, “Cyclic regimens using quinazolinone and benzoxazine derivatives” (Wyeth, priority 1999, dated 2002).
